Reference: patent publication US5104884A, “Triazolyl quinoline derivatives” (Alkaloida Vegyeszeti Gyar, priority 1985, dated 1992)
Read-outs that look alike come from different tables or passages of the source.

Experiments:
[1] = adjuvant induced arthritis in rats, method of Newbold; assay type: in vivo, male Wistar rats; settings: Rattus norvegicus, po, 504 h, read-out: Percental inhibition of the growth of paw volume, on the 21st day; for inhibition in vivo at 25 mg/kg: 25 mg/kg p.o. daily for two weeks
Method: According to the method of Newbold 0.1 ml of Freund complet adjuvant (Difco Lab. Mich. […] The volume of the hind paws is measured before and 21 days after the administration of the adjuvant with the aid of a mercury plethysmometer. […] In Table II the "percental inhibition of the growth of paw volume" relates to the value determined on the 21st day. […] The tests show furthermore that the compounds of the present invention are active not only in healing morphological deformations but effect in a desirable and useful manner the functional condition and fitness of the feet, moreover the general physical state and condition of the animals, too.

[2] = test system: Erysiphe graminis f. sp. tritici; assay: antifungal effect on Erysiphe graminis (powdery mildew on wheat plants, glasshouse); assay type: in vivo; settings: Blumeria graminis; for inhibition at 25 µg/mL: 25 μg/ml; for inhibition at 50 µg/mL: 50 μg/ml; for inhibition at 100 µg/mL: 100 μg/ml; for inhibition at 200 µg/mL: 200 μg/ml; for inhibition at 400 µg/mL: 400 μg/ml; for inhibition at 150 µg/mL: 150 μg/ml
Method: The compounds of the general Formula (I) are particularly effective against powdery mildew. In Table IV the activity of some compounds of the general […] against Erysiphe graminis f. sp. tritici strain are disclosed.
The following test method is used: Glasshouse conditions: temperature 20° C.; relative humidity 80%; strength of illumination 6000 lux. The test plants MV-9 Automn wheat are cultivated in pots diameter 20 cm in a 1:1 mixture of sand and perlite. The average number of plants per pot amounts to 180, the height of the plants is 6-7 cm. About 8 ml of the aqueous suspension of the test compound is applied onto the plants with the aid of a sprayer.
The rate of infectedness is determined after 8 days. Activity is calculated from the percental inhibition values. As control commercial products Fundazol 50 WP and Karathene LC 50 are used.

[3] = carrageenin edema inhibition in rats (antiphlogistic effect), Winter method; assay type: in vivo, male Wistar rats; settings: Rattus norvegicus, po; for inhibition in vivo at 12.5 mg/kg: 12.5 mg/kg p.o.; for inhibition in vivo at 25 mg/kg: 25 mg/kg p.o.; for inhibition in vivo at 50 mg/kg: 50 mg/kg p.o.; for inhibition in vivo at 100 mg/kg: 100 mg/kg p.o.
Method: Thus the orally administered compounds of the general Formula (I) efficiently reduce acute inflammatory processes. According to the method of Winter [Proc. Soc. Exp. Biol. Med. 111, 544 (1962)] carrageenin edema is induced and evaluated on male Wistar rats fasted for 16 hours body weight 160-180 g. Percental inhibition is calculated from the average edema values of the groups treated with the test compound on the one hand and with carrier carboxy methyl cellulose, CMC; control on the other. ED50 values are determined by means of regression analysis of the inhibition values. The test compounds are administered through a stomach canule in the form of a 1% carboxy methyl cellulose (CMC) suspension, one hour before introducing the carrageenin injection.

[4] = hot (56° C.) plate test on mice (analgesic effect); assay type: in vivo, male and female CFLP strain mice; settings: Mus musculus, po, 1 h, read-out: Lengthening of reaction time in %; for change in vivo at 25 mg/kg: 25 mg/kg p.o.; for change in vivo at 50 mg/kg: 50 mg/kg p.o.; for change in vivo at 100 mg/kg: 100 mg/kg p.o.; for change in vivo at 12.5 mg/kg: 12.5 mg/kg p.o.
Method: The analgesic effect of the compounds of the present invention is tested according to the hot (56° C.) plate test on male and female CFLP strain mice weighing 18-22 g. The point of time of the appearence of the deterring reaction Abwehrreaktion is determined and related to the latent time measured on the control group Woolfe and McDonald 1944. At least 10 animals are used per dose. […] The test is carried out on separated male Wistar rats weighing 180-210 g and fasted for 16 hours. The test compounds are suspended in 1% carboxy methyl cellulose and administered orally in a dose of 10 ml/kg.

[5] = ulcerogenic effect (stomach haemorrhage and ulcers); assay type: in vivo, male Wistar rats; settings: rat, po, acute test, rats, five hours after treatment, read-out: UD50
Method: Five hours after treatment the animals are sacrificed and their stomachs are placed into a 2.5% formaline solution. The number and rate of punctiform haemorrhage and ulcers is evaluated according to the following scale:
1=some punctiform haemorrhage (<10);
2=diffuse haemorrhage or small ulcer (<2 mm);
3=two or more minor small ulcer (<2 mm);
4=one or more large ulcer (>2 mm).

[6] = rats, read-out: Percental inhibition of paw volume
[7] = carrageenin edema, rats, p.o., regression analysis, read-out: ED50
[8] = read-out: Percental inhibition of paw volume

SMILES	inhibition in vivo at 25 mg/kg [1] [%]	inhibition in vivo at 12.5 mg/kg [3, 6] [%]	inhibition in vivo at 25 mg/kg [3, 6] [%]	inhibition in vivo at 50 mg/kg [3, 6] [%]	inhibition in vivo at 100 mg/kg [3, 6] [%]	ED50 [3, 7] [mg/kg]	change in vivo at 25 mg/kg [4] [%]	change in vivo at 50 mg/kg [4] [%]	change in vivo at 100 mg/kg [4] [%]	other results
Cc1ccc2cc(C)c(Sc3nc[nH]n3)nc2c1 [Compound 109]	36.7	–	–	–	–	–	–	–	–	–
Cc1cc(-n2cncn2)c2cccc(C)c2n1 [Compound 6, 4-(1H-1,2,4-triazole-1-yl)-2,8-dimethyl-quinoline]	–	–	–	–	–	–	–	–	–	inhibition at 25 µg/mL [2]: 49.2%; inhibition at 50 µg/mL [2]: 71.6%; inhibition at 100 µg/mL [2]: 85.1%; inhibition at 200 µg/mL [2]: 89.5%; inhibition at 400 µg/mL [2]: 99.4%
Cc1cc(-n2cncn2)c2ccc(Cl)c(Cl)c2n1 [Compound 22]	–	–	–	–	–	–	–	–	–	inhibition at 25 µg/mL [2]: 40.8%; inhibition at 50 µg/mL [2]: 67.7%; inhibition at 100 µg/mL [2]: 79.8%; inhibition at 200 µg/mL [2]: 93%; inhibition at 400 µg/mL [2]: 96.9%
Cc1ccc2nc(Sc3nc[nH]n3)c(C)cc2c1 [Compound 108]	35.2	19	45	61	70	38.5	34	46	46	–
Cc1cc2cccc(C)c2nc1Sc1nc[nH]n1 [Compound 110]	32.1	10	42	46	61	51.4	21	34	52	–
Cc1cc(Sc2n[nH]c(C)n2)c2cccc(C)c2n1 [Compound 64]	40.6	15	27	44	65	59.1	17	39	44	–
COc1ccc2cc([C@H](C)C(=O)O)ccc2c1 [Naproxen, reference compound]	28.4	33	49	64	71	28.7	31	45	49	inhibition in vivo at 12.5 mg/kg ([1]; 12.5 mg/kg p.o.): 16.8%; change in vivo at 12.5 mg/kg [4]: 25%
Cc1cc2ccccc2nc1-n1cncn1 [Compound 83, 2-(1H-1,2,4-triazole-1-yl)-3-methyl-quinoline]	46.7	21	63	70	72	28.1	16	28	59	–
Cc1cc(Sc2n[nH]c(C)n2)c2ccccc2n1 [Compound 62]	40.3	18	51	59	69	38.4	19	30	38	change in vivo at 12.5 mg/kg [4]: 17%
COc1cccc2c(-n3cncn3)cc(C)nc12 [Compound 8]	–	–	–	–	–	–	–	–	–	inhibition at 25 µg/mL [2]: 42.1%; inhibition at 50 µg/mL [2]: 70.9%; inhibition at 100 µg/mL [2]: 82%; inhibition at 150 µg/mL [2]: 84.1%; inhibition at 200 µg/mL [2]: 91.9%; inhibition at 400 µg/mL [2]: 98.8%
CCc1nc(Sc2cc(C)nc3ccc(C)cc23)n[nH]1 [Compound 74]	–	26	55	69	–	25.7	19	26	43	–
Cc1cc(Sc2n[nH]c(C)n2)c2ccc(Cl)c(C)c2n1 [Compound 69]	35.2	27	33	52	86	35	13	24	30	–
Cc1cc2ccccc2nc1Sc1nc[nH]n1 [Compound 107]	17.8	29	40	70	74	30.6	34	41	88	–
Cc1cc(-n2cncn2)c2cccc(Cl)c2n1 [Compound 10]	–	–	–	–	–	–	–	–	–	inhibition at 25 µg/mL [2]: 20.3%; inhibition at 50 µg/mL [2]: 42.8%; inhibition at 100 µg/mL [2]: 76.4%; inhibition at 200 µg/mL [2]: 92.7%; inhibition at 400 µg/mL [2]: 90.1%
Clc1ccc2c(-n3cncn3)ccnc2c1 [Compound 1, 4-(1H-1,2,4-triazole-1-yl)-7-chloro-quinoline]	–	–	–	–	–	–	–	–	–	inhibition at 37.5 µg/mL ([2]; 37.5 μg/ml): 50.6%; inhibition at 50 µg/mL [2]: 72.6%; inhibition at 75 µg/mL ([2]; 75 μg/ml): 83%; inhibition at 100 µg/mL [2]: 85.3%; inhibition at 150 µg/mL [2]: 36.8%; inhibition at 200 µg/mL [2]: 90.1%; inhibition at 400 µg/mL [2]: 99.6%
Cc1ccc2cc(C)c(-n3cncn3)nc2c1 [Compound 85]	28.4	–	–	–	–	–	–	–	–	–
CCCCC1C(=O)N(c2ccccc2)N(c2ccccc2)C1=O [Phenylbutazon, reference compound]	–	–	21	42	45	101	–	–	29	inhibition in vivo at 200 mg/kg ([3]; 200 mg/kg p.o., rats, read-out: Percental inhibition of paw volume): 66%; inhibition in vivo at 50 mg/kg ([1]; 50 mg/kg p.o.): 18.5%; change in vivo at 150 mg/kg ([4]; 150 mg/kg p.o.): 42%; change in vivo at 200 mg/kg ([4]; 200 mg/kg p.o.): 44%
CCc1nc(Sc2nc3ccc(C)cc3cc2C)n[nH]1 [Compound 138]	35.2	–	–	–	–	–	25	37	82	–
Cc1cc(Sc2n[nH]c(C)n2)c2cccc(C(F)(F)F)c2n1 [Compound 67]	32.8	–	–	–	–	–	–	–	–	–
Cc1nc(Sc2ccnc3cc(Cl)ccc23)n[nH]1 [Compound 61]	38.2	29	37	–	58	60.9	20	22	26	–
Cc1cc(Sc2nc[nH]n2)c2cccc(Cl)c2n1 [Compound 46]	28.1	–	–	–	–	–	7	18	38	–
COc1ccc2c(c1)c(CC(=O)O)c(C)n2C(=O)c1ccc(Cl)cc1 [Indomethacin, reference compound]	–	–	–	–	–	–	–	–	–	ED50 [3]: 4.1 mg/kg; inhibition in vivo at 1 mg/kg [3, 8]: 28%; inhibition in vivo at 2 mg/kg [3, 8]: 40%; inhibition in vivo at 4 mg/kg [3, 8]: 47%; inhibition in vivo at 8 mg/kg [3, 8]: 64%; inhibition in vivo at 12 mg/kg [3, 8]: 67%; TD50 at 5 h [5]: 6.3 mg/kg
